Data from US9546401B2, “Assays and methods for selecting a treatment regimen for a subject with depression” (The General Hospital Corporation, priority 2011, dated 2017).
Where two headings read alike, the source gives them in different places.

Tests used:
[1] = system: MDD patients carrying the indicated SNP
Excerpt: The term “prevalence” as used in FIG. 8B refers to the total percentage of MDD patients who carry the SNP as indicated in this particular study.

[2] = system: MDD patients positive or negative for SNP biomarkers; conditions: subjects positive for MTR 2756 AG or GG versus negative
Excerpt: A responder is indicated by a reduction of at least about 50% in HAMD-28 over the evaluation period.

[3] = system: SSRI-resistant outpatients with major depressive disorder (MDD)
Procedure: Documentation of the presence of any side effect or adverse event is completed at every visit using the SAFTEE-SI. Subjects can contact a clinician at any time between visits concerning adverse events or worsening of symptoms. Suicidal ideation is assessed at each visit. Subjects who are felt by the study clinician to be at high risk for suicide are discontinued from the study and referred for hospitalization and further treatment if clinically indicated (See Tables 4 & 5 below).
One-way analysis of variance can be used to assess differences in total number of SAFTEE-SI AEs between baseline and endpoint.

[4] = CACNA1C rs1006737 (AG), genotype code 13
[5] = COMT (Val 158 Met) rs4680 (GG), genotype code 33
[6] = COMT (Val 158 rs4633 (CC), genotype code 22)
[7] = DAT (SLC6A3) rs250682 (CG), genotype code 33
[8] = DNMT3B rs1883729 (AG), genotype code 11/13
[9] = DNMT3B rs1883729 (AG), genotype code 11
[10] = DNMT3B rs1883729 (AG), genotype code 13
[11] = DRD2 (H313H) rs6275 (TT), genotype code 11
[12] = DRD2 (SLC26A9) rs11240594 (AG), genotype code 33
[13] = DRD2 (Taq1Br) rs1079596 (TC), genotype code 42/44
[14] = DRD2 (Taq1Br) rs1079596 (TC), genotype code 42
[15] = FDRC rs2277820 (TC), genotype code 22
[16] = GCH1 rs8007267 (TC), genotype code 42
[17] = GCHFR rs7163862 (TA), genotype code 41
[18] = GCPH or FOLH1 rs202676 (AG), genotype code 31
[19] = MTHFD 1 G1958A (R653Q) rs2236225 (AG), genotype code 33
[20] = MTHFR G1793A rs2274976 (GA), genotype code 42
[21] = PCYT1A rs7639752 (AA), genotype code 11
[22] = RCF1 (in SLC19A1) rs1051266 (AA), genotype code 44
[23] = RCF1 A > G rs2297291 (AA), genotype code 11
[24] = RCF2 (in SLC19A1) rs12659 (TT), genotype code 11
[25] = Trial 2, 15 mg + SSRI, versus placebo

Compound: CN1c2c(nc(N)[nH]c2=O)NC[C@@H]1CNc1ccc(C(=O)N[C@@H](CCC(=O)O)C(=O)O)cc1 [6(S)-5-MTHF, 6(S)-5-methyltetrahydrofolate]
- PHASE I EFFFCT, change in HAMD-28 [1, 4]: −8.006
- PHASE II EFFFCT, change in HAMD-28 [1, 4]: −2.467
- POOLED PHASES EFFFCT, change in HAMD-28 [1, 4]: −4.633
- PHASE II EFFFCT, change in HAMD-28 [1, 5]: −10.170
- PHASE I EFFFCT, change in HAMD-28 ([1]; COMT (Val 158 Met) rs4680 (GG), genotype code 33, folate-containing compound + SSRI): −12.070
- POOLED PHASES EFFFCT, change in HAMD-28 [1, 5]: −10.880
- PHASE I EFFFCT, change in HAMD-28 [1, 6]: −10.070
- PHASE II EFFFCT, change in HAMD-28 [1, 6]: −10.170
- POOLED PHASES EFFFCT, change in HAMD-28 [1, 6]: −9.240
- PHASE I EFFFCT, change in HAMD-28 [1, 7]: −5.722
- PHASE II EFFFCT, change in HAMD-28 [1, 7]: −5.768
- POOLED PHASES EFFFCT, change in HAMD-28 [1, 7]: −4.996
- PHASE I EFFFCT, change in HAMD-28 [1, 8]: −6.340
- PHASE II EFFFCT, change in HAMD-28 [1, 8]: −4.940
- POOLED PHASES EFFFCT, change in HAMD-28 [1, 8]: −5.360
- PHASE I EFFFCT, change in HAMD-28 [1, 9]: −2.318
- PHASE II EFFFCT, change in HAMD-28 [1, 9]: −5.267
- POOLED PHASES EFFFCT, change in HAMD-28 [1, 9]: −4.811
- PHASE I EFFFCT, change in HAMD-28 [1, 10]: −8.097
- PHASE II EFFFCT, change in HAMD-28 [1, 10]: −4.667
- POOLED PHASES EFFFCT, change in HAMD-28 [1, 10]: −6.748
- PHASE I EFFFCT, change in HAMD-28 [1, 11]: −16.560
- PHASE II EFFFCT, change in HAMD-28 [1, 11]: 1.667
- POOLED PHASES EFFFCT, change in HAMD-28 [1, 11]: −7.627
- PHASE I EFFFCT, change in HAMD-28 [1, 12]: −5.018
- PHASE II EFFFCT, change in HAMD-28 [1, 12]: −3.424
- POOLED PHASES EFFFCT, change in HAMD-28 [1, 12]: −3.758
- PHASE I EFFFCT, change in HAMD-28 [1, 13]: −10.640
- PHASE II EFFFCT, change in HAMD-28 [1, 13]: −3.893
- POOLED PHASES EFFFCT, change in HAMD-28 [1, 13]: −6.903
- PHASE I EFFFCT, change in HAMD-28 [1, 14]: −10.640
- PHASE II EFFFCT, change in HAMD-28 [1, 14]: −3.893
- POOLED PHASES EFFFCT, change in HAMD-28 [1, 14]: −6.903
- PHASE I EFFFCT, change in HAMD-28 [1, 15]: −2.634
- PHASE II EFFFCT, change in HAMD-28 [1, 15]: −6.232
- POOLED PHASES EFFFCT, change in HAMD-28 [1, 15]: −4.027
- PHASE I EFFFCT, change in HAMD-28 [1, 16]: −7.729
- PHASE II EFFFCT, change in HAMD-28 [1, 16]: −5.417
- POOLED PHASES EFFFCT, change in HAMD-28 [1, 16]: −6.654
- PHASE I EFFFCT, change in HAMD-28 [1, 17]: −6.280
- PHASE II EFFFCT, change in HAMD-28 [1, 17]: −4.542
- POOLED PHASES EFFFCT, change in HAMD-28 [1, 17]: −4.863
- PHASE I EFFFCT, change in HAMD-28 [1, 18]: −7.314
- PHASE II EFFFCT, change in HAMD-28 [1, 18]: −3.300
- POOLED PHASES EFFFCT, change in HAMD-28 [1, 18]: −5.402
- PHASE I EFFFCT, change in HAMD-28 [1, 19]: −2.742
- PHASE II EFFFCT, change in HAMD-28 [1, 19]: −3.762
- POOLED PHASES EFFFCT, change in HAMD-28 [1, 19]: −3.496
- PHASE I EFFFCT, change in HAMD-28 [1, 20]: −5.333
- PHASE II EFFFCT, change in HAMD-28 [1, 20]: 2.833
- POOLED PHASES EFFFCT, change in HAMD-28 [1, 20]: −5.551
- PHASE I EFFFCT, change in HAMD-28 [1, 21]: −10.400
- PHASE II EFFFCT, change in HAMD-28 [1, 21]: −3.900
- POOLED PHASES EFFFCT, change in HAMD-28 [1, 21]: −6.716
- PHASE I EFFFCT, change in HAMD-28 [1, 22]: −10.000
- PHASE II EFFFCT, change in HAMD-28 [1, 22]: −2.750
- POOLED PHASES EFFFCT, change in HAMD-28 [1, 22]: −7.673
- PHASE I EFFFCT, change in HAMD-28 [1, 23]: −8.778
- PHASE II EFFFCT, change in HAMD-28 [1, 23]: −1.400
- POOLED PHASES EFFFCT, change in HAMD-28 [1, 23]: −5.458
- PHASE I EFFFCT, change in HAMD-28 [1, 24]: −7.571
- PHASE II EFFFCT, change in HAMD-28 [1, 24]: −1.400
- POOLED PHASES EFFFCT, change in HAMD-28 [1, 24]: −4.860
- treatment effect within genetic modifiers (race, age, sex, BMI) [2]: statistically significant treatment effect
- number of adverse events (SAFTEE-SI) ([3]; SSRI + 15 mg/day versus SSRI + placebo): no significant differences in the number of adverse events
- discontinuation due to overall adverse side-effects or exclusion events ([3]; Trial 2): no difference in discontinuation
- Cardiovascular side effects, Frequency ([3]; Trial 2, 15 mg + SSRI, n = 42): 0
- Cardiovascular side effects, Frequency (%) ([3]; Trial 2, 15 mg + SSRI, n = 42): (0%)
- Gastrointestinal side effects, Frequency ([3]; Trial 2, 15 mg + SSRI, n = 42): 7
- Gastrointestinal side effects, Frequency (%) ([3]; Trial 2, 15 mg + SSRI, n = 42): (16.7%)
- Infectious side effects, Frequency ([3]; Trial 2, 15 mg + SSRI, n = 42): 5
- Infectious side effects, Frequency (%) ([3]; Trial 2, 15 mg + SSRI, n = 42): (11.9%)
- Miscellaneous side effects, Frequency ([3]; Trial 2, 15 mg + SSRI, n = 42): 1
- Miscellaneous side effects, Frequency (%) ([3]; Trial 2, 15 mg + SSRI, n = 42): (2.4%)
- Psychological side effects, Frequency ([3]; Trial 2, 15 mg + SSRI, n = 42): 4
- Psychological side effects, Frequency (%) ([3]; Trial 2, 15 mg + SSRI, n = 42): (9.5%)
- Sexual side effects, Frequency ([3]; Trial 2, 15 mg + SSRI, n = 42): 1
- Sexual side effects, Frequency (%) ([3]; Trial 2, 15 mg + SSRI, n = 42): (2.4%)
- Sleep side effects, Frequency ([3]; Trial 2, 15 mg + SSRI, n = 42): 1
- Sleep side effects, Frequency (%) ([3]; Trial 2, 15 mg + SSRI, n = 42): (2.4%)
- Somatic side effects, Frequency ([3]; Trial 2, 15 mg + SSRI, n = 42): 6
- Somatic side effects, Frequency (%) ([3]; Trial 2, 15 mg + SSRI, n = 42): (14.3%)
- Cardiovascular side effects, NNH [3, 25]: =placebo
- Gastrointestinal side effects, NNH [3, 25]: 53
- Infectious side effects, NNH [3, 25]: <placebo
- Miscellaneous side effects, NNH [3, 25]: <placebo
- Psychological side effects, NNH [3, 25]: <placebo
- Sexual side effects, NNH [3, 25]: 98
- Sleep side effects, NNH [3, 25]: <placebo
- Somatic side effects, NNH [3, 25]: <placebo
